Source: PubChem BioAssay AID264 (DTP/NCI, 2004)
Several values for one entry are separate records, joined by “and”; a condition that tells them apart may be missing. Identical values can stand only once. Inconclusive results are not listed. Peptide text beside a SMILES is read from it. * marks the point of attachment. Trt = c1ccc(C(c2ccccc2)(c2ccccc2)*)cc1; Cbz = O=C(OCc1ccccc1)*

System: nude mice, LX-1 lung xenograft intrarenal, tumor weight T/C
Test: NCI In Vivo Anticancer Drug Screen. Data for tumor model Human Lung LX-1 Xenograft (intrarenal inoculation) in NU/NU Swiss (nude) mice
Details: endpoint: mean tumor weight change, higher = larger tumour
Procedure, shortened: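 Antitumor effect is expressed as a ratio: the mean tumor measurement of the drug-treated group relative to that of the vehicle-dosed control group.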

[1] = dose: 6.0 mg/kg/injection, schedule: Q04DX003 (sc), vehicle: Klucel (hydroxypropylcellulose) (HPC)
[2] = dose: 150.0 mg/kg/injection, schedule: Q04DX003 (sc), vehicle: saline
[3] = dose: 300.0 mg/kg/injection, schedule: Q04DX003 (sc), vehicle: saline
[4] = dose: 300.0 mg/kg/injection, schedule: Q04DX003 (sc), vehicle: saline with Tween-80
[5] = dose: 600.0 mg/kg/injection, schedule: Q04DX003 (sc), vehicle: saline with Tween-80
[6] = dose: 1200.0 mg/kg/injection, schedule: Q04DX003 (sc), vehicle: saline with Tween-80
[7] = dose: 150.0 mg/kg/injection, schedule: Q04DX003 (sc), vehicle: saline with Tween-80
[8] = dose: 100.0 mg/kg/injection, schedule: Q04DX003 (sc), vehicle: saline with Tween-80
[9] = dose: 200.0 mg/kg/injection, schedule: Q04DX003 (sc), vehicle: saline with Tween-80

CC1CC(C)CC(C)C(O)/C(C#N)=C/C=C/CC(C2CCCC2C(=O)O)OC(=O)CC(O)C(C)C1 (stereo not given)
T/C [1]: 117 % of control | T/C (dose: 12.0 mg/kg/injection, schedule: Q04DX003 (sc), vehicle: Klucel (hydroxypropylcellulose) (HPC)): 58 % of control | T/C (dose: 24.0 mg/kg/injection, schedule: Q04DX003 (sc), vehicle: Klucel (hydroxypropylcellulose) (HPC)): 48 % of control

Oc1ccc(CCl)c2cccnc12
T/C (dose: 75.0 mg/kg/injection, schedule: Q04DX003 (sc), vehicle: saline): 91 % of control | T/C [2]: 78 % of control | T/C [3]: 46 % of control

COC(=O)C(CSC(c1ccccc1)(c1ccccc1)c1ccccc1)NC(=O)C(CC(N)=O)NC(=O)OCc1ccccc1 (stereo not drawn) (Cbz-Asn-Cys(Trt)-OMe; configuration not given here)
T/C (dose: 300.0 mg/kg/injection, schedule: Q04DX003 (sc), vehicle: distilled water + Tween-80): 79 % of control | T/C (dose: 1200.0 mg/kg/injection, schedule: Q04DX003 (sc), vehicle: distilled water + Tween-80): 105 % of control | T/C (dose: 2400.0 mg/kg/injection, schedule: Q04DX003 (sc), vehicle: distilled water + Tween-80): 116 % of control

CN(CCN(C)C(=O)CCOS(C)(=O)=O)C(=O)CCOS(C)(=O)=O
T/C [2]: 58 % of control | T/C [3]: 27 % of control

C[N+](C)(C)c1ncnc2nc[nH]c12
T/C (dose: 50.0 mg/kg/injection, schedule: Q01DX010 (sc), vehicle: saline): 78 % of control | T/C (dose: 100.0 mg/kg/injection, schedule: Q01DX010 (sc), vehicle: saline): 116 % of control | T/C (dose: 200.0 mg/kg/injection, schedule: Q01DX010 (sc), vehicle: saline): 58 % of control

C[n+]1c(/C=N/NC(N)=S)ccc2ccccc21
T/C [4]: 93 % of control | T/C [5]: 101 % of control | T/C [6]: 102 % of control

CCCN1COC(OCC)C(C)(C)C1 (stereo not given)
T/C [7]: 92 % of control | T/C [4]: 90 % of control | T/C [5]: 106 % of control | T/C [6]: 107 % of control

Nc1nc2c(C(=O)N3CCCC3)nnn2c2ccccc12
T/C [7]: 55 % of control

O=[N+]([O-])O.[Ga]
T/C (dose: 100.0 mg/kg/injection, schedule: Q04DX003 (sc), vehicle: saline): 92 % of control | T/C (dose: 200.0 mg/kg/injection, schedule: Q04DX003 (sc), vehicle: saline): 86 % of control | T/C (dose: 400.0 mg/kg/injection, schedule: Q04DX003 (sc), vehicle: saline): 86 % of control | T/C (dose: 800.0 mg/kg/injection, schedule: Q04DX003 (sc), vehicle: saline): 83 % of control

C[C@H](N)C(=O)N[C@@H]1[C@H]2C(=C(O)C[C@@H](O)[C@@H]2O)C(=O)O[C@]1(C)C(Cl)Cl
T/C (dose: 1.5 mg/kg/injection, schedule: Q04DX003 (sc), vehicle: Klucel (hydroxypropylcellulose) (HPC)): 108 % of control | T/C (dose: 3.0 mg/kg/injection, schedule: Q04DX003 (sc), vehicle: Klucel (hydroxypropylcellulose) (HPC)): 107 % of control | T/C [1]: 81 % of control

CCCCn1cnc2c(=S)nc[nH]c21
T/C (dose: 300.0 mg/kg/injection, schedule: Q04DX003 (sc), vehicle: suspension in saline): 69 % of control | T/C (dose: 600.0 mg/kg/injection, schedule: Q04DX003 (sc), vehicle: suspension in saline): 53 % of control | T/C (dose: 1200.0 mg/kg/injection, schedule: Q04DX003 (sc), vehicle: suspension in saline): 61 % of control | T/C (dose: 2400.0 mg/kg/injection, schedule: Q04DX003 (sc), vehicle: suspension in saline): 57 % of control

COC1=C(OC)C(=O)C(SC/C=C(\C)CCCC(C)CCCC(C)CCCC(C)C)=CC1=O (stereo not given)
T/C [5]: 91 % of control | T/C [6]: 40 % of control | T/C (dose: 2400.0 mg/kg/injection, schedule: Q04DX003 (sc), vehicle: saline with Tween-80): 55 % of control

C/C=C/C=C/c1cc2cc3c(c(O)c2c(=O)[nH]1)C1(CC3)C(O)=c2c(=O)c3c(=O)cc(OC)c(=O)c=3c(=O)c2=C1O (stereo not given)
T/C (dose: 0.5 mg/kg/injection, schedule: Q01DX010 (sc), vehicle: DMSO): 221 % of control | T/C (dose: 1.0 mg/kg/injection, schedule: Q01DX010 (sc), vehicle: DMSO): 162 % of control | T/C (dose: 2.0 mg/kg/injection, schedule: Q01DX010 (sc), vehicle: DMSO): 92 % of control and 104 % of control | T/C (dose: 4.0 mg/kg/injection, schedule: Q01DX010 (sc), vehicle: DMSO): 103 % of control and 111 % of control | T/C (dose: 8.0 mg/kg/injection, schedule: Q01DX010 (sc), vehicle: DMSO): 106 % of control | T/C (dose: 16.0 mg/kg/injection, schedule: Q01DX010 (sc), vehicle: DMSO): 86 % of control

O=C(O)C1CSCN1 (stereo not given)
T/C (dose: 50.0 mg/kg/injection, schedule: Q01DX010 (sc), vehicle: water): 86 % of control | T/C (dose: 100.0 mg/kg/injection, schedule: Q01DX010 (sc), vehicle: water): 68 % of control

COC1/C=C/C=C(/C)Cc2cc(O)c(Cl)c(c2)N(C)C(=O)CC(OC(=O)C(C)C)C2(C)OC2C(C)C2CC1(O)NC(=O)O2 (stereo not given)
T/C (dose: 1.0 mg/kg/injection, schedule: Q04DX003 (sc), vehicle: saline + alcohol): 81 % of control | T/C (dose: 2.0 mg/kg/injection, schedule: Q04DX003 (sc), vehicle: saline + alcohol): 67 % of control | T/C (dose: 4.0 mg/kg/injection, schedule: Q04DX003 (sc), vehicle: saline + alcohol): 58 % of control

[Cl][Pt+2][Cl].[NH-]C1CCC1.[NH2-]
T/C (dose: 12.5 mg/kg/injection, schedule: Q04DX003 (sc), vehicle: suspension in saline): 57 % of control

CC1(C)COCN1COC1CCCCC1
T/C [8]: 76 % of control | T/C [9]: 119 % of control | T/C (dose: 400.0 mg/kg/injection, schedule: Q04DX003 (sc), vehicle: saline with Tween-80): 68 % of control | T/C (dose: 800.0 mg/kg/injection, schedule: Q04DX003 (sc), vehicle: saline with Tween-80): 110 % of control

CC(Cc1ccc(O)c(O)c1)C(C)Cc1ccc(O)c(O)c1 (stereo not given)
T/C (dose: 300.0 mg/kg/injection, schedule: Q04DX003 (sc), vehicle: saline + alcohol): 107 % of control | T/C (dose: 600.0 mg/kg/injection, schedule: Q04DX003 (sc), vehicle: saline + alcohol): 90 % of control | T/C (dose: 1200.0 mg/kg/injection, schedule: Q04DX003 (sc), vehicle: saline + alcohol): 104 % of control | T/C (dose: 2400.0 mg/kg/injection, schedule: Q04DX003 (sc), vehicle: saline + alcohol): 66 % of control

Clc1cc(Cl)c(C[N+]23CN4CN(CN(C4)C2)C3)cc1Cl
T/C (dose: 18.75 mg/kg/injection, schedule: Q04DX003 (sc), vehicle: saline with Tween-80): 76 % of control | T/C (dose: 37.5 mg/kg/injection, schedule: Q04DX003 (sc), vehicle: saline with Tween-80): 96 % of control | T/C (dose: 75.0 mg/kg/injection, schedule: Q04DX003 (sc), vehicle: saline with Tween-80): 91 % of control | T/C [7]: 107 % of control

COC(=O)Nc1nc2ccc(C3(c4ccc(F)cc4)OCCO3)cc2[nH]1
T/C (dose: 25.0 mg/kg/injection, schedule: Q04DX003 (sc), vehicle: saline with Tween-80): 76 % of control | T/C (dose: 50.0 mg/kg/injection, schedule: Q04DX003 (sc), vehicle: saline with Tween-80): 71 % of control | T/C [8]: 89 % of control | T/C [9]: 79 % of control | T/C [6]: 17 % of control and 37 % of control

Nc1nc([Se])c2ncn(C3OC(CO)C(O)C3O)c2n1 (stereo not given)
T/C (dose: 1.0 mg/kg/injection, schedule: Q01DX010 (sc), vehicle: saline): 264 % of control | T/C (dose: 2.0 mg/kg/injection, schedule: Q01DX010 (ip), vehicle: saline): 46 % of control | T/C (dose: 4.0 mg/kg/injection, schedule: Q01DX010 (ip), vehicle: saline): 31 % of control | T/C (dose: 6.66 mg/kg/injection, schedule: Q04DX003 (ip), vehicle: saline): 82 % of control | T/C (dose: 6.66 mg/kg/injection, schedule: Q04DX003 (sc), vehicle: saline): 45 % of control | T/C (dose: 8.0 mg/kg/injection, schedule: Q01DX010 (ip), vehicle: saline): 41 % of control | T/C (dose: 13.33 mg/kg/injection, schedule: Q04DX003 (ip), vehicle: saline): 121 % of control | T/C (dose: 13.33 mg/kg/injection, schedule: Q04DX003 (sc), vehicle: saline): 62 % of control | T/C (dose: 16.0 mg/kg/injection, schedule: Q01DX010 (ip), vehicle: saline): 61 % of control | T/C (dose: 16.0 mg/kg/injection, schedule: Q01DX010 (sc), vehicle: saline): 35 % of control | T/C (dose: 26.65 mg/kg/injection, schedule: Q04DX003 (ip), vehicle: saline): 91 % of control | T/C (dose: 26.65 mg/kg/injection, schedule: Q04DX003 (sc), vehicle: saline): 95 % of control | T/C (dose: 53.3 mg/kg/injection, schedule: Q04DX003 (ip), vehicle: saline): 44 % of control

C=C1C(=O)C2=CC1CCC(=O)C1(C)CCC(OC(C)=O)C(C)(C)C1CC2O (stereo not given)
T/C (dose: 60.0 mg/kg/injection, schedule: Q04DX003 (sc), vehicle: Klucel (hydroxypropylcellulose) (HPC)): 121 % of control | T/C (dose: 120.0 mg/kg/injection, schedule: Q04DX003 (sc), vehicle: Klucel (hydroxypropylcellulose) (HPC)): 57 % of control
